Converted amounts (≈) assume the structure as drawn. Where two headings read alike, the source gives them in different places.
Legend:
[1] = system: S. aureus FDA209P (ATCC 6538P); assay: microbe, parasite or virus in culture; type: cell-based, Staphylococcus aureus; details: quinolone-susceptible MSSA, ParC 80S, GyrA 84S
Procedure: (§1) Then, the cell suspension was diluted 500 times with CAMHB mentioned above.

S. aureus Mu50 = assay: microbe, parasite or virus in culture; type: cell-based, Staphylococcus aureus; details: for MIC: S. aureus Mu50, quinolone-resistant MRSA, ParC S80F, GyrA S84L; for MIC ratio (Mu50 MIC/FDA209P MIC): MIC for S. aureus Mu50 / MIC for S. aureus FDA209P
Procedure: as §1

E. faecalis NCTC12201 = assay: MIC against Enterococcus bacteria; type: cell-based; details: quinolone-susceptible
Procedure: (§2) Antibacterial activities of the compound J-131CP against Enterococcus bacteria (Enterococcus faecium and Enterococcus faecalis) were examined by the following methods.
(§3) The compound J-131CP and quinolones were prepared in the same manner as that of Test Example 1-1.
(§4) Cell suspensions were prepared in the same manner as that of Test Example 1-1 described in the section of measurement of MIC in Test Example 1-1, except that the Enterococcus bacterium strains mentioned in Table 8 were used instead of Staphylococcus aureus, and MICs of the compound J-131CP and quinolones as control were determined for the strains in the same manner as that of Test Example 1-1 described in the section of measurement of MIC in Test Example 1-1. In Table 8, the amino acid substitution mutations in QRDR of the strains are underlined.

E. faecalis 36-15722 = assay: MIC against Enterococcus bacteria; type: cell-based, Enterococcus faecalis; details: E. faecalis 36-15722, quinolone-resistant, ParC 80Ile, GyrA 84Ile
Procedure: as §2, §3, §4

E. coli strain 1708 = assay: Antibacterial activity against Escherichia coli
Excerpt: (§9) The numerical values in the tables indicate MIC (mg/L), Res means resistant bacterium, and Sus means susceptible bacterium.
(§10) Antibacterial activities against Escherichia coli of the compounds shown Table 19 were examined by the following method.
(§11) After completion of the culture, the cells were suspended in fresh TBS to prepare a cell suspension showing an absorbance of 0.3 at 578 nm.

E. coli strain 1709 = assay: Antibacterial activity against Escherichia coli
Excerpt: as §9, §10, §11

[2] = system: E. coli strain 1708 plus PABN; assay: Antibacterial activity against Escherichia coli in combination with efflux pump inhibitor PAβN; details: E coli plus PABN 40 mg/L, strain 1708, Quinolone Res
Excerpt: as §9, §10, §11

[3] = system: E. coli strain 1709 plus PABN; assay: as above; details: E coli plus PABN 40 mg/L, strain 1709, Quinolone Sus
Excerpt: as §9, §10, §11

E. faecium NCTC12202 = assay: MIC against Enterococcus bacteria; type: cell-based, Enterococcus faecium
Procedure: as §2, §3, §4

E. faecium RPR2 = assay: MIC against Enterococcus bacteria; type: cell-based, Enterococcus faecium
Procedure: as §2, §3, §4

S. pneumoniae BCLSP37 = assay: MIC against pneumococcus, CAMHB with 5 mass % LHB; type: cell-based, Streptococcus pneumoniae; details: quinolone-resistant, ParC 79Phe, GyrA 85Lys
Procedure: (§5) The S. pneumoniae strains used for this test belong to any one of the categories of penicillin-susceptible pneumococcus (penicillin-susceptible Streptococcus pneumoniae, PSSP), penicillin-intermediate pneumococcus (penicillin-intermediate Streptococcus pneumoniae, PISP), and penicillin-resistant pneumococcus (penicillin-resistant Streptococcus pneumoniae, PRSP).
(§6) The lysed horse blood was prepared by adding sterilized water to horse sterile defibered blood (produced by Nippon Bio-Supp. Center) at a ratio of 1:1, subjecting the mixture to freezing and thawing 5 times, then centrifuging the mixture twice at 10,000 rpm for 20 minutes, and filtering the supernatant through a filter.
(§7) The S. pneumoniae strains mentioned in Table 11 were each cultured overnight at 37° C. on a blood agar medium as stationary culture. The blood agar medium was prepared by adding 5 mass % ovine sterile defibered blood (produced by Nippon Bio-Supp. Center) to a heart infusion agar medium (produced by EIKEN CHEMICAL). Each S. pneumoniae strain cultured overnight at 37° C. as stationary culture was further subcultured overnight at 37° C. on fresh blood agar medium as stationary culture. After completion of the culture, cells of each pneumococcus strain were collected with a swab, and suspended in physiological saline, and the suspension was adjusted with physiological saline to show absorbance of 0.08 to 0.13 at 625 nm as measured with an absorbance meter (produced by Amersham), and further diluted 200 times with CAMHB containing 5 mass % LHB.
(§8) In Table 11, the amino acid substitution mutations in QRDR of the strains are underlined.

S. pneumoniae KBSP11 = assay: MIC against pneumococcus, CAMHB with 5 mass % LHB; type: cell-based, Streptococcus pneumoniae
Procedure: as §5, §6, §7, §8

[4] = Staphylococcus aureus, ATCC 6538P / FDA209P / MSSA, read-out: MIC
[5] = Enterococcus faecalis, NCTC 12201 / VRE
[6] = Enterococcus faecalis, 3615722, read-out: MIC
[7] = Enterococcus faecium, NCTC 12202 / VRE
[8] = Streptococcus pneumoniae, BCLSP37, S. pneumoniae BCLSP37, PSSP, read-out: MIC

Compound	MIC [1, 4] [µg/mL]	MIC (S. aureus Mu50; Staphylococcus aureus, MRSA) [µg/mL]	MIC (E. faecalis NCTC12201; [5]) [µg/mL]	MIC (E. faecalis 36-15722; [6]) [µg/mL]	MIC (E. coli strain 1708) [µg/mL]	MIC (E. coli strain 1709) [µg/mL]	MIC [2] [µg/mL]	MIC [3]	MIC (E. faecium NCTC12202; [7]) [µg/mL]	MIC (E. faecium RPR2; Enterococcus faecium, RPR2) [µg/mL]	MIC (S. pneumoniae BCLSP37; [8]) [µg/mL]	MIC (S. pneumoniae KBSP11; Streptococcus pneumoniae, PRSP) [µg/mL]	MIC ratio (Mu50 MIC/FDA209P MIC) (S. aureus Mu50)	other results
CC(O)c1cc(=O)n(C2CC2)c2cc(-c3ccc4c(c3)CNC4C)c(F)cc12 (stereo not shown) [J-144M]	0.5 (≈ 1.32 µM)	4 (≈ 10.6 µM)	1 (≈ 2.64 µM)	2 (≈ 5.28 µM)	128 (≈ 338 µM)	4 (≈ 10.6 µM)								
O=c1cc(CO)c2cc(F)c(-c3ccccc3)cc2n1C1CC1 [J-168]	2 (≈ 6.47 µM)	2 (≈ 6.47 µM)			128 (≈ 414 µM)	16 (≈ 51.7 µM)	0.5	≦0.06 mg/L						
O=c1cc(CO)c2cc(F)c(-c3ccc(O)cc3)c(Cl)c2n1C1CC1 [J-161]	0.25 (≈ 0.695 µM)	0.5 (≈ 1.39 µM)	1 (≈ 2.78 µM)	1 (≈ 2.78 µM)	128 (≈ 356 µM)	16 (≈ 44.5 µM)	1	0.13 µg/mL	16 (≈ 44.5 µM)	8 (≈ 22.2 µM)	4 (≈ 11.1 µM)	2 (≈ 5.56 µM)		
COc1c(-c2ccc(O)cc2)c(F)cc2c(CO)cc(=O)n(C3CC3)c12 [J-156]	0.5 (≈ 1.41 µM)	0.5 (≈ 1.41 µM)	2 (≈ 5.63 µM)	2 (≈ 5.63 µM)	128 (≈ 360 µM)	128 (≈ 360 µM)	2	0.1 µg/mL			2 (≈ 5.63 µM)	4 (≈ 11.3 µM)		
CC1NCc2cc(-c3cc4c(cc3F)c(CO)cc(=O)n4C3CC3)ccc21 (stereo not shown) [J-144, 1-cyclopropyl-6-fluoro-4-(hydroxymethyl)-7-(1-methylisoindolin-5-yl)hydroquinolin-2-one]	0.5 (≈ 1.37 µM)	1 (≈ 2.74 µM)	0.5 (≈ 1.37 µM)	0.5 (≈ 1.37 µM)					8 (≈ 22 µM)	4 (≈ 11 µM)	0.5 (≈ 1.37 µM)	0.25 (≈ 0.686 µM)	2	
O=c1cc(CO)c2cc(F)c(-c3ccc(O)cc3)c(F)c2n1C1CC1 [J-155]	0.25 (≈ 0.728 µM)	0.13 (≈ 0.379 µM)	1 (≈ 2.91 µM)	1 (≈ 2.91 µM)	128 (≈ 373 µM)	8 (≈ 23.3 µM)	0.5	≦0.06 mg/L	16 (≈ 46.6 µM)	8 (≈ 23.3 µM)	1 (≈ 2.91 µM)	12 (≈ 35 µM)		
Nc1ccc(-c2cc3c(cc2F)c(CO)cc(=O)n3C2CC2)cc1 [J-132CP, 7-(4-aminophenyl)-1-cyclopropyl-6-fluoro-4-(hydroxymethyl)hydroquinolin-2-one]	0.5 (≈ 1.54 µM)	0.5 (≈ 1.54 µM)	2 (≈ 6.17 µM)	2 (≈ 6.17 µM)					16 (≈ 49.3 µM)	8 (≈ 24.7 µM)	4 (≈ 12.3 µM)	2 (≈ 6.17 µM)	1	
CC1COc2c(-c3ccc(O)cc3)c(F)cc3c(CO)cc(=O)n1c23 (stereo not shown) [J-149, 9-fluoro-7-(hydroxymethyl)-10-(4-hydroxyphenyl)-3-methyl-2H-[1,4]oxazino[2,3,4-ij]quinolin-5(3H)-one]	0.5 (≈ 1.46 µM)	0.5 (≈ 1.46 µM)	0.5 (≈ 1.46 µM)	0.5 (≈ 1.46 µM)					128 (≈ 375 µM)	16 (≈ 46.9 µM)	8 (≈ 23.4 µM)	4 (≈ 11.7 µM)	1	
Nc1ccc(-c2cc3c(cc2F)c(CO)cc(=O)n3C2CC2)cc1 [J-166]					128 (≈ 395 µM)	8 (≈ 24.7 µM)	0.5	≦0.06 mg/L						MIC [1]: 1 µg/mL (≈ 3.08 µM); MIC (S. aureus Mu50): 1 µg/mL (≈ 3.08 µM); MIC (E. faecium NCTC12202; E. faecium NCTC12202, VRE, quinolone-susceptible): 16 µg/mL (≈ 49.3 µM); MIC (E. faecium RPR2; E. faecium RPR2, quinolone-resistant, ParC 82Ile, GyrA 84Ile 88Lys): 8 µg/mL (≈ 24.7 µM); MIC (E. faecalis NCTC12201; E. faecalis NCTC12201, VRE): 1 µg/mL (≈ 3.08 µM); MIC (E. faecalis 36-15722): 2 µg/mL (≈ 6.17 µM); MIC (S. pneumoniae BCLSP37; S. pneumoniae BCLSP37, PSSP): 2 µg/mL (≈ 6.17 µM); MIC (S. pneumoniae KBSP11; S. pneumoniae KBSP11, PRSP, quinolone-susceptible): 2 µg/mL (≈ 6.17 µM)
NOCc1cc(=O)n(C2CC2)c2cc(-c3ccc(O)cc3)c(F)cc12 [J-174]	2 (≈ 5.88 µM)	1 (≈ 2.94 µM)	4 (≈ 11.8 µM)	8 (≈ 23.5 µM)	128 (≈ 376 µM)	64 (≈ 188 µM)	4	0.5 µg/mL						
O=c1cc(CO)c2ccc(-c3ccc(O)cc3)c(F)c2n1C1CC1 [J-154, 1-cyclopropyl-8-fluoro-4-(hydroxymethyl)-7-(4-hydroxyphenyl)hydroquinolin-2-one]	0.5 (≈ 1.54 µM)	0.25 (≈ 0.768 µM)	4 (≈ 12.3 µM)	2 (≈ 6.15 µM)					16 (≈ 49.2 µM)	8 (≈ 24.6 µM)	8 (≈ 24.6 µM)	8 (≈ 24.6 µM)	0.5	
NCc1cc(=O)n(C2CC2)c2cc(-c3ccc(O)cc3)c(F)cc12 [J-139, 4-(aminomethyl)-1-cyclopropyl-6-fluoro-7-(4-hydroxyphenyl)hydroquinolin-2-one]	0.5 (≈ 1.54 µM)	0.5 (≈ 1.54 µM)	1 (≈ 3.08 µM)	4 (≈ 12.3 µM)					8 (≈ 24.7 µM)	8 (≈ 24.7 µM)	4 (≈ 12.3 µM)	1 (≈ 3.08 µM)	1	
O=c1cc(CO)c2cc(F)c(-c3ccc(O)c(O)c3)cc2n1C1CC1 [J-176]	2 (≈ 5.86 µM)	1 (≈ 2.93 µM)	2 (≈ 5.86 µM)	2 (≈ 5.86 µM)	128 (≈ 375 µM)	32 (≈ 93.7 µM)			8 (≈ 23.4 µM)	4 (≈ 11.7 µM)	8 (≈ 23.4 µM)	4 (≈ 11.7 µM)		
